In PMC7557402, “Evaluation of Nucleoside Analogs as Antimicrobials Targeting Unique Enzymes in Borrelia burgdorferi” (Pathogens, 2020):
Where “and” joins values, the source holds several entries; their conditions need not be identical. Equal values may be shown once. Read-outs that look alike come from different tables or passages of the source.

Assays:
Pfs [1] = target: T1, Pfs (Borreliella burgdorferi, UniProt O50162); assay: MTAN spectrophotometric activity assay (specific activity, Km); assay type: biochemical, Borrelia burgdorferi; details: for Specific Activity: pH 5, 1 U = 1 µmol MTA hydrolyzed per minute; for % Max Specific Activity: relative to MTA as a substrate
T1 sequence (O50162 entry or part of it): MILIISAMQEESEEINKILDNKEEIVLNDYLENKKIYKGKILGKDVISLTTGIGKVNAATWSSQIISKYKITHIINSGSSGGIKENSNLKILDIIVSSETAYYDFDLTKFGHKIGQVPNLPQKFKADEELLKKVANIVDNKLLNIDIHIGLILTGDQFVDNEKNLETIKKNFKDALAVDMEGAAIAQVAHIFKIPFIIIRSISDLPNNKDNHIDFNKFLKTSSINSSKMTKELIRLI
Experimental: (§1) Recombinant MTANs were expressed and purified as previously described. Briefly, overnight 10 mL cultures of recombinant E. coli BL21(DE3) pLysS cells containing engineered pET30a expression plasmids for Bgp, MtnN or Pfs were grown at 37 °C with shaking (150 rpm) in LB broth supplemented with 50 µg/mL kanamycin and 0.5% glucose. The culture was diluted 1:50 in fresh medium and incubated at 37 °C with shaking (150 rpm) until the absorbance (600 nm) reached 0.4–0.6. Protein expression was induced with the addition of isopropyl β-D-1-thiogalactopyranoside (IPTG) to a final concentration of 1 mM and continued overnight incubation with shaking at 30 °C. Cells were harvested by centrifugation (10,000× g/15 min), and the pellet was washed once with ice-cold lysis buffer (50 mM sodium phosphate, pH = 8.0, 300 mM NaCl, 10 mM imidazole, 2mM β mercaptoethanol). Harvested cell pellets were resuspended in 10 mL fresh lysis buffer and lysed by sonication on ice using a Misonix Sonicator 300 (power setting 7, pulse 30 s, 1 min cooling with total sonication for 2.5 min). The cell lysates were centrifuged at 10,000× g for 15 min at 4 °C to remove debris, and the lysate was further filtered through a […] syringe filter to obtain a clear extract. Recombinant N-terminal hexahistidine tagged proteins were purified from the lysate using HisPur™ affinity columns (Thermo Scientific) according to the manufacturer’s specifications, and specifically eluted with 250 mM imidazole containing buffer (pH = 7). Eluted materials were analyzed by SDS-PAGE and Coomassie blue staining and found to be >95% homogeneous. Enzyme concentrations were determined using UV scans on a Cary100 spectrophotometer (Agilent) to determine the absorbance at 280 nm and applying extinction coefficients (0.1%) of 0.594 (Bgp), 0.637 (MtnN), and 0.404 (Pfs). Enzyme stocks (1 mg/mL) were prepared in 20% glycerol and stored at −80 °C.
(§2) Enzyme specific activities were determined using previously reported optimal pH conditions (50 mM sodium phosphate, pH = 7, for Bgp, MtnN; 50 mM sodium phosphate-citrate, pH = 5, for Pfs) and a spectrophotometric activity assay that measures the decrease in UV absorbance at 275 nm that occurs when MTA is cleaved to 5-methylthioribose and adenine (ε275 = 1.6 mM^−1cm^−1). The extinction coefficients for cleavage of other nucleosides were experimentally validated and found to be the same for MSeA, FSBA, and IADO (ε275 = 1.6 mM^−1cm^−1). Due to the added UV absorbance imparted by the 5′ purine group found in PurTA, the enzyme reactions were followed spectrophotometrically at 260 nm using the experimentally determined extinction coefficient of ε260 = 5.6 mM^−1cm^−1. Enzyme specific activities for MTA were generally 1–2 U/mg (1 U = µmol MTA hydrolyzed/min). The enzyme specific activities for other nucleosides were determined and reported in U/mg and as the % max specific activity (relative to MTA at 100%).
(§3) Kinetic constants have been previously reported for MTA [18]. As MSeA was also an efficient substrate for the B. burgdorferi nucleosidases, kinetic constants were determined using the activity assay described above, varying the nucleoside concentrations from 1 to 20 µM, and fitting the data on substrate-velocity plots to the Michaelis–Menten equation using GraphPad Prism (version 6):(1) Vo=Vmax[S]/Km+[S]

Bgp [2] = target: T2, Bgp (Borreliella burgdorferi, UniProt Q9F952); assay: as above; assay type: biochemical, Borrelia burgdorferi; details: for Specific Activity: pH 7, 1 U = 1 µmol MTA hydrolyzed per minute; for % Max Specific Activity: relative to MTA as a substrate
T2 sequence (Q9F952 entry or part of it): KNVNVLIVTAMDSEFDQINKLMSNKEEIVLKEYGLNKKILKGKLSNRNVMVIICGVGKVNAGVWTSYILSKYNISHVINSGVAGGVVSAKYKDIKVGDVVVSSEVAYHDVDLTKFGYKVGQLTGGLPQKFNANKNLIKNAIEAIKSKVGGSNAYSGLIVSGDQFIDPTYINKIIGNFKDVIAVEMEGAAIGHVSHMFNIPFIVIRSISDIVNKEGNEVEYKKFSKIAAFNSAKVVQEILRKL
Experimental: as §1, §2, §3

MtnN [3] = target: T3, MtnN (Borreliella burgdorferi, UniProt O50860); assay: as above; assay type: biochemical, Borrelia burgdorferi; details: for Specific Activity: pH 7, 1 U = 1 µmol MTA hydrolyzed per minute; for % Max Specific Activity: relative to MTA as a substrate
T3 sequence (O50860 entry or part of it): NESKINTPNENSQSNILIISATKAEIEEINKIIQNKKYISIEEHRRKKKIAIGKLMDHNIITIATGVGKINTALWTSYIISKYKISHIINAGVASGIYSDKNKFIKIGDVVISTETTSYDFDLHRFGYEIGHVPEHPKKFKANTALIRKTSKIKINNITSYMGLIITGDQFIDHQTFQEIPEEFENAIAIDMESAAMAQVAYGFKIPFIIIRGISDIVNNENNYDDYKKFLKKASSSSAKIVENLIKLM
Experimental: as §1, §2, §3

B. burgdorferi N40 [4] = assay: Subculture without inhibitor after 7 days of treatment: bacteriostatic versus bactericidal; assay type: cell-based, Borrelia burgdorferi; details: for Inhibitor Activity: 7 days of treatment, then subculture
Experimental: After 7 days of treatment, a 5 µL aliquot from each treatment tube (and untreated control) was added to 1 mL of BSKII-RS medium to allow any remaining viable spirochetes in the sample to grow. After incubation for 7–21 days at 33 °C, the survival of the spirochetes was determined using dark-field microscopy to observe motility and by employing bioluminescence measurements to assess vitality of the recovered culture.
To further differentiate between bacteriostatic versus bactericidal activities of MTAN inhibitors, we subcultured drug treated spirochetes in the absence of inhibitors to recover any live B. burgdorferi remaining after seven days of inhibitor treatment (summarized in Table 4). If non-motile spirochetes from treated cultures were able to grow back, the inhibitor was determined to have a bacteriostatic effect at the selected concentration. […] Spirochete survival was determined by both dark-field microscopy and bioluminescence measurements. Microscopic examination allowed assessment of motility of the spirochetes whereas bioluminescence assays assessed recovery and viability of B. burgdorferi cells. […] By comparison, a reduction in bioluminescence compared to the untreated control was observed after treatment with dEt-ImmA at a 0.4 µM or greater concentration. […] After seven days of treatment, live spirochetes were only recovered when concentrations of ≤0.4 µM were used for dEt-ImmA and IADO.

[5] = system: Borrelia MTANs (Bgp, MtnN, Pfs); assay: MTAN activity/kinetics, across the nucleosidases; assay type: biochemical
Experimental: as §2, §3
For the other compounds, inhibition constants (Ki’s) were determined as previously described, using an MTA concentration of 100 µM and varying the inhibitor concentration from 0 to 100 µM. The inhibited velocity (Vo’) and uninhibited velocity (Vo) values were determined, and the ratio of Vo’/Vo plotted as a function of inhibitor concentration. Ki values were calculated from these plots by fitting the data to the equation for competitive inhibition using GraphPad Prism:(2) Vo^′/Vo=Km+[S]/Km+[S]+(Km[I]/Ki)

E. coli MTAN = system: E. coli MTAN; parameters: method as in PMID 8941345; details: radioactive enzyme assay; cited from earlier work
MtnN [6] = target: T3, MtnN; details: reported previously, ref Cornell et al., 2020 [18], read-out: Km (Michaelis constant); cited from earlier work
Bgp [7] = target: T2, Bgp; parameters: method as in Cornell et al., 2020 [18]; details: reported previously, ref Cornell et al., 2020 [18], read-out: Km (Michaelis constant); cited from earlier work
Pfs [8] = target: T1, Pfs; details: reported previously, ref Cornell et al., 2020 [18], read-out: Km (Michaelis constant); cited from earlier work
B. burgdorferi N40 [9] = assay: Dark-field microscopy of treated cultures (motility); assay type: cell-based, Borrelia burgdorferi; details: 24 h treatment
Experimental: The infectious N40 B. burgdorferi culture was treated with ten 2-fold serial dilutions of ampicillin overnight. Stocks of ampicillin at 200 µg/mL to 0.385 µg/mL concentrations were used to prepare different dilutions for treatment (final 10 to 0.0195 µg/well). The bioluminescence standard curve (Figure 3) was used to calculate the percentage of physiologically compromised B. burgdorferi after treatment with different ampicillin concentration for 24 h. Ampicillin treatment affected the viability of the spirochetes (Figure 4A). […] A prolonged incubation could increase killing by ampicillin at lower doses of drug. In addition to bioluminescence, the cultures were also observed under dark-field microscopy to examine viability.

[10] = system: B. burgdorferi strain N40; assay: microbe, parasite or virus in culture; assay type: cell-based, Borrelia burgdorferi; details: 24 h treatment; calculated from graphs
Experimental: B. burgdorferi N40 strain carrying a firefly luciferase gene (Bbluc), which is a derivative of the N40D10/E9 clone, was used in this study and is labeled as N40 throughout. N40 was cultured at 33 °C in Barbour-Stoenner-Kelly-II (BSK-II) medium supplemented with 6% rabbit serum (BSKII-RS). Bacterial counts were determined under 400× magnification using a hemocytometer and a dark field microscope.
The luciferase expressing B. burgdorferi N40 strain was grown to a density of ~10^8 spirochetes/mL and divided into two aliquots. One aliquot was incubated at 60 °C for 30 min to kill the spirochetes. […] The culture was mixed with the substrate by shaking in the dark, incubated at 37 °C for 5 min in a Spectramax M2 microplate reader (Molecular Devices, San Jose, CA, USA) and the bioluminescence measured. […]
Nucleosides and nucleoside analogs were prepared as sterile 1 mM stock solutions in distilled water (MSeA, IADO, FSBA, and dEt-ImmA) or in DMSO (PurTA). […] Photon emission due to luciferase activity was measured at three time points, after: (a) 24 h, (b) 72 h, and (c) 7 days of treatments to observe the effect of inhibitors on B. burgdorferi culture. At the end of each time point, bioluminescence was measured as described above. […]

Pfs [11] = target: T1, Pfs; parameters: method as in Cornell et al., 2020 [18]; details: reported previously, ref Cornell et al., 2020 [18], cited from earlier work
MtnN [12] = target: T3, MtnN; parameters: method as in Cornell et al., 2020 [18]; details: reported previously, ref Cornell et al., 2020 [18], cited from earlier work
Bgp [13] = target: T2, Bgp; parameters: method as in Cornell et al., 2020 [18]; details: reported previously, ref Cornell et al., 2020 [18], cited from earlier work
[14] = nucleoside 1 to 20 µM, read-out: Km (Michaelis constant)
[15] = read-out: Ki (inhibition constant)

5′-deoxy-5′-methylselenoadenosine [MSeA]
Km (Pfs [1]; [14]): 2.12 µM
Specific Activity (Pfs [1]): 0.27 U/mg
% Max Specific Activity (Pfs [1]): 16%
Km (Bgp [2]; [14]): 1.62 µM
Specific Activity (Bgp [2]): 1.79 U/mg
% Max Specific Activity (Bgp [2]): 179%
Km (MtnN [3]; [14]): 1.5 µM
Specific Activity (MtnN [3]): 1.50 U/mg
% Max Specific Activity (MtnN [3]): 150%
Inhibitor Activity (B. burgdorferi N40 [4]; Dose: All doses (0.0032–10 µM)): Bacteriostatic
recovery of spirochetes (bioluminescence comparable with untreated controls) (B. burgdorferi N40 [4]; all concentrations, 12 days of incubation of subcultured bacteria): fully recovered
specific activities higher than MTA ([5]; Bgp and MtnN): 50–79%
Km ([5]; range over all three nucleosidases): 1.5 to 2.1 µM and 1.5 to 2 µM
IC50 (E. coli MTAN): ~4000 nM

5′-deoxy-5′-methylthioadenosine [MTA, reference compound]
Specific Activity (Pfs [1]): 1.70 U/mg
% Max Specific Activity (Pfs [1]): 100%
Specific Activity (Bgp [2]): 1.00 U/mg
% Max Specific Activity (Bgp [2]): 100%
Specific Activity (MtnN [3]): 1.00 U/mg
% Max Specific Activity (MtnN [3]): 100%
Km (MtnN [6]): 9.09 µM
Km (Bgp [7]): 0.49 µM
Km (Pfs [8]): 0.61 µM

CC1(C)S[C@@H]2[C@H](NC(=O)[C@H](N)c3ccccc3)C(=O)N2[C@H]1C(=O)O [ampicillin, reference compound]
concentration at which majority of the spirochetes were non-motile with stripping of the outer membrane (B. burgdorferi N40 [9]): ≥ 0.625 µg/well
IC50 (percent of physiologically compromised B. burgdorferi) [10]: ~ 0.31 µg/µL of culture

CCC[C@H]1N[C@@H](c2c[nH]c3c(N)ncnc23)[C@H](O)[C@@H]1O [dEt-ImmA, 5′-deoxy-5′-ethyl-immucillin A]
Ki (Pfs [11]; [15]): 10.5 nM
Ki’ (delayed onset inhibition constant) (Pfs [11]): 0.53 ± 0.15 nM
Ki (MtnN [12]; [15]): 1.48 nM
Ki’ (delayed onset inhibition constant) (MtnN [12]): 0.58 ± 0.05 nM
recovery of live spirochetes (B. burgdorferi N40 [4]; 2 µM and 10 µM, 21 days of subculture in media lacking MTAN inhibitors): no live spirochetes were recovered
Inhibitor Activity (B. burgdorferi N40 [4]; Dose: 2 µM, 10 µM): Bactericidal
concentration giving a reduction in bioluminescence compared to the untreated control (B. burgdorferi N40 [4]; after 12 days of incubation of subcultured bacteria): ≥ 0.4 µM
concentrations at which live spirochetes were recovered (B. burgdorferi N40 [4]; after seven days of treatment): ≤ 0.4 µM
concentrations that exert bactericidal activity (B. burgdorferi N40 [4]; after seven days of treatment, bacteriostatic at lower concentrations): ≥ 1 µM
Ki (Bgp [13]; [15]): 2.48 nM
Ki’ (delayed onset inhibition constant) (Bgp [13]): 0.35 ± 0.02 nM
